# Measured values: US12606827B2, “Compounds for treatment of osteoarthritis” (Altos Labs, Inc., priority 2020, dated 2026)
# Test system: Healthy Articular Chondrocytes (HACs)
# Experiment: LPS-stimulated intracellular ROS (CM-H2DCFDA) in healthy chondrocytes
# Format: cell-based, human
# Conditions: 0.1 μM and 1 μM, 1 h pretreatment, then LPS 1 μg/ml for 48 h
# Method: Human articular chondrocytes (HAC) were transiently transfected with a siRNA control or targeting USP16 as described in Example 2. 36 hours post knockdown, cells were stimulated with LPS 1 μg/ml) for 48 h. Healthy Articular Chondrocytes (HACs) were pretreated with 0.1- and 1-μM Compound 2 for 1 h and then stimulated with LPS (1 μg/ml) for 48 h. At the end of the treatment, fluorescent dye, CM-H2DCFDA (final concentration 10 μl of 20 μM) was added to cells and incubated for 30 min in CO2 incubator to measure the intracellular ROS produced in these cells. After incubation, the cells were washed with cold-phosphate buffered saline and the fluorescence intensity of the stained cells was measured at an excitation and emission wavelength of 485 nm and 530 nm respectively. Fluorescence intensity was then normalized for cell number using Hoechst staining.
# Chondrocytes were pretreated with 0.1- and 1-μM CA for 1 h and then stimulated with LPS (1 μg/m)l for 48 h. For siRNA experiment, LPS stimulation was performed 36 hours after knockdown for additional 48 h. […] After incubation, the cells were washed with cold-phosphate buffered saline and the fluorescence intensity of the stained cells was measured at an excitation and emission wavelength of 485 nm and 530 nm respectively. Fluorescence intensity was then normalized for cell number using Hoechst staining.
compound,measurement,value
C#Cc1ccc(CNC(=O)c2cc(C(=O)CCl)cn2C)cc1 [Compound 2],inflammation-induced oxidative stress (intracellular ROS),reduced inflammation-induced oxidative stress in healthy chondrocytes in a dose-dependent manner
